Test results published in patent US11352362B2, “Polymorph of rucaparib camsylate” (SHANGHAI BEGREAT PHARMATECH, priority 2018, dated 2022).
Structures can show the parent of a compound that is named as a salt.

How the values were obtained:
[1] = Solubility of rucaparib camsylate crystal forms in simulated gastric juice; type: physicochemical; settings: for Solubility under low pH conditions: such as pH 1.2; for Solubility in SGF: about 1 mg in 1 mL, shaking 20 min, filtered, HPLC
Method: Determination of the solubility of rucaparib camsylate in simulated gastric juice. Weigh about 1 mg of the powder of Form A, Form B, Form C and Form D of rucaparib camsylate in a 2-mL tube, then add 1 mL of simulated gastric juice (Prepared by adding diluted hydrochloric acid 16.4 ml, 800 ml of water and 10 g of pepsin. After shaking, add water to volume of 1000 ml). After shaking the suspension for 20 min, it was filtered through a needle filter to obtain a clear solution. The rucaparib camsylate content in the solution was analyzed by HPLC method.

[2] = Stress stability of crystal form D (XRPD evaluation); type: physicochemical
Method: In order to evaluate the physical stability of the crystal form D, experiments on the stress stability for the crystal form D were performed. The physical stability of the crystal form D under high temperature, high humidity and light stress conditions was investigated. The experimental conditions of the stress stability are as follows: [table] The crystal form D was placed in the above stress conditions. After sampling at the time point, the stability sample was evaluated by XRPD.

| Solubility under low pH conditions [1] | Solubility in SGF ([1]; simulated gastric juice) [µg/mL] | Crystal form by XRPD after stress ([2]; Elevate temperature 60° C., 5 day) | Crystal form by XRPD after stress ([2]; Elevate temperature 60° C., 10 day) | Crystal form by XRPD after stress ([2]; High humidity 92.5% RH, 5 day) | Crystal form by XRPD after stress ([2]; High humidity 92.5% RH, 10 day) | Crystal form by XRPD after stress ([2]; Light stress 4500 lux, 5 day) | Crystal form by XRPD after stress ([2]; Light stress 4500 lux, 10 day) | Physical stability under stress conditions ([2]; high temperature, high humidity and light stress conditions) | Solubility at 20 minutes compared with existing crystalline forms A, B and C ([1]; simulated gastric juice, low pH, 20 minutes) | Structure (SMILES) |
| --- | --- | --- | --- | --- | --- | --- | --- | --- | --- | --- |
| low solubility | 100 |  |  |  |  |  |  |  |  | CNCc1ccc(-c2[nH]c3cc(F)cc4c3c2CCNC4=O)cc1 [Form A, 8-fluoro-2-{4-[(methylamino)methyl]phenyl}-1,3,4,5-tetrahydro-6H-azepino[5,4,3-cd]indol-6-one ((1S,4R)-7,7-dimethyl-2-oxobicyclo[2.2.1]hept-1-yl) methanesulfonic acid salt] |
| low solubility | 130 |  |  |  |  |  |  |  |  | CNCc1ccc(-c2[nH]c3cc(F)cc4c3c2CCNC4=O)cc1 [Form B, 8-fluoro-2-{4-[(methylamino)methyl]phenyl}-1,3,4,5-tetrahydro-6H-azepino[5,4,3-cd]indol-6-one ((1S,4R)-7,7-dimethyl-2-oxobicyclo[2.2.1]hept-1-yl) methanesulfonic acid salt] |
| low solubility | 110 |  |  |  |  |  |  |  |  | CNCc1ccc(-c2[nH]c3cc(F)cc4c3c2CCNC4=O)cc1 [Form C, 8-fluoro-2-{4-[(methylamino)methyl]phenyl}-1,3,4,5-tetrahydro-6H-azepino[5,4,3-cd]indol-6-one ((1S,4R)-7,7-dimethyl-2-oxobicyclo[2.2.1]hept-1-yl) methanesulfonic acid salt] |
|  | 310 | Form D | Form D | Form D | Form D | Form D | Form D | stable | significantly higher | CNCc1ccc(-c2[nH]c3cc(F)cc4c3c2CCNC4=O)cc1 [Form D, 8-fluoro-2-{4-[(methylamino)methyl]phenyl}-1,3,4,5-tetrahydro-6H-azepino[5,4,3-cd]indol-6-one ((1S,4R)-7,7-dimethyl-2-oxobicyclo[2.2.1]hept-1-yl) methanesulfonic acid salt] |
